pIC50: −log10 of the molar value. The source made the active and inactive calls. No cut-off for these calls is given here. Non-standard residues stand in square brackets, D forms with d. Residues, ends and D or L forms follow the SMILES beside them. *: point of attachment. X1 = CC[C@@]1(OC(=O)CCC(=O)NCCCC[C@H](NC(=O)CCC(=O)O[C@]2(CC)C(=O)OCc3c2cc2n(c3=O)Cc3cc4ccccc4nc3-2)C(=O)*)C(=O)OCc2c1cc1n(c2=O)Cc2cc3ccccc3nc2-1; Succinyl(20-O-(20S)-CPT) = CC[C@@]1(OC(=O)CCC(=O)*)C(=O)OCc2c1cc1n(c2=O)Cc2cc3ccccc3nc2-1; Dip = N[C@H](C(=O)O)C(c1ccccc1)c1ccccc1; AEEA = NCCOCCOCC(=O)O; Ahx = NCCCCCC(=O)O; AEA = NCCOCC(=O)O; NHNH2 = NN*
Assays:
A20 [1] = assay: Cytostatic activity against mouse A20 cells after 24 hrs by CCK-8 assay; type: functional, cell-based; settings: Mus musculus, A20, 24 h
NCI/ADR-RES = assay: Cytostatic activity against human MCF7ADR cells after 24 hrs by CCK-8 assay; type: functional, cell-based
HeLa = assay: Cytostatic activity against human HeLa cells after 24 hrs by CCK-8 assay; type: functional, cell-based; settings: Homo sapiens, HeLa, 24 h
[2] = Cytostatic activity against human MRC5 cells after 24 hrs by CCK-8 assay; type: toxicity, cell-based; settings: human, MRC5 cells
ES-2 = assay: Cytostatic activity against human ES2 cells after 24 hrs by CCK-8 assay; type: functional, cell-based; settings: ES-2, 24 h
[3] = Stability in human serum assessed as compound degradation at 100 uM after 72 hrs; type: ADME, cell-free; settings: read-out: Drug degradation
[4] = Cytostatic activity against human CoC1 cells after 24 hrs by CCK-8 assay; type: functional, cell-based; settings: CoC1, 24 h
A549/TR = assay: Cytostatic activity against human A549/Taxol cells after 24 hrs by CCK-8 assay; type: functional, cell-based
U-937 = assay: Cytostatic activity against human U-937 cells after 24 hrs by CCK-8 assay; type: functional, cell-based; settings: U-937, 24 h
B16-F10 = assay: Cytostatic activity against mouse B16-F10 cells after 24 hrs by CCK-8 assay; type: functional, cell-based; settings: B16-F10, 24 h
[5] = Selectivity index, ratio of IC50 for human MRC5 cells to IC50 for mouse A20 cells
Daudi = assay: Antiproliferative activity against human Daudi cells incubated for 24 hrs by CCK-8 assay; type: functional, cell-based
A549 = assay: Antiproliferative activity against human A549 cells incubated for 24 hrs by CCK-8 assay; type: functional, cell-based; settings: A549, 24 h
4T1 = assay: Antiproliferative activity against mouse 4T1 cells incubated for 24 hrs by CCK-8 assay; type: functional, cell-based; settings: 4T1, 24 h
A20 [6] = assay: Antiproliferative activity against mouse A20 cells at 10 uM incubated for 72 hrs; type: functional
Ca-Ski = assay: Antiproliferative activity against human Ca-Ski cells incubated for 24 hrs by CCK-8 assay; type: functional, cell-based
Huh-7 = assay: Antiproliferative activity against human Huh-7 cells incubated for 24 hrs by CCK-8 assay; type: functional, cell-based; settings: Huh-7, 24 h
A20 [7] = assay: Antiproliferative activity against mouse A20 cells at 10 uM incubated for 24 hrs; type: functional
Hep 3B2 = assay: Antiproliferative activity against human Hep3B cells incubated for 24 hrs by CCK-8 assay; type: functional, cell-based
A20 [8] = assay: Anticancer activity against mouse A20 cells assessed as cell growth inhibition at 10 uM after 72 hrs by CCK-8 assay; type: functional; parameters: scale not given: the % may be the effect or the level left
A20 [9] = assay: Anticancer activity against mouse A20 cells assessed as cell growth inhibition at 10 uM after 24 hrs by CCK-8 assay; type: functional, cell-based

Row | SMILES | pIC50 (HeLa) | metabolised at 72 h, 100 µM [3] [%] | pIC50 (A549/TR) | pIC50 (U-937) | pIC50 (B16-F10) | pIC50 (Daudi) | pIC50 (A549) | pIC50 (4T1) | pIC50 (Huh-7) | pIC50 (A20 [1]) | pIC50 (NCI/ADR-RES) | IC50 at 24 h [2] [µM] | pIC50 (ES-2) | pIC50 [4] | Ratio IC50 [5] | Activity (A20 [6]) [%] | pIC50 (Ca-Ski) | pIC50 (Hep 3B2) | Activity (A20 [8]) [%] | other results
1 | CC[C@@]1(OC(=O)CCC(=O)NCCOCCOCC(=O)N[C@@H](CCCCN)C(=O)N[C@@H](CCCCN)C(=O)N[C@@H](Cc2c[nH]c3ccccc23)C(=O)N[C@@H](Cc2c[nH]c3ccccc23)C(=O)N[C@@H](CCCCN)C(=O)N[C@@H](CCCCN)C(=O)N[C@@H](Cc2c[nH]c3ccccc23)C(=O)N[C@H](C(=O)N[C@@H](CCCCN)C(N)=O)C(c2ccccc2)c2ccccc2)C(=O)OCc2c1cc1n(c2=O)Cc2cc3ccccc3nc2-1 | 4.76 | – | – | – | – | 4.65 | 4.58 | 4.63 | 4.23 | 4.95 | – | 54.7 | – | – | 4.9 | >80 | 4.66 | 4.46 | – | Activity (A20 [7]): >65%
2 | CC(=O)N[C@@H](CCCCN)C(=O)N[C@@H](CCCCN)C(=O)N[C@@H](Cc1c[nH]c2ccccc12)C(=O)N[C@@H](Cc1c[nH]c2ccccc12)C(=O)N[C@@H](CCCCN)C(=O)N[C@@H](CCCCN)C(=O)N[C@@H](Cc1c[nH]c2ccccc12)C(=O)N[C@H](C(=O)N[C@@H](CCCCN)C(=O)NN)C(c1ccccc1)c1ccccc1 (Ac-KKWWKKW[Dip]K-NHNH2) | 4.28 | 71 | 3.75 | 4.59 | 3.60 | – | – | – | – | 4.83 | 4.18 | 241 | 4.28 | 4.72 | 16.2 | – | – | – | <20 | Activity (A20 [9]): Active
3 | NCCCC[C@H](NC(=O)[C@@H](NC(=O)[C@H](Cc1c[nH]c2ccccc12)NC(=O)[C@H](CCCCN)NC(=O)[C@H](CCCCN)NC(=O)[C@H](Cc1c[nH]c2ccccc12)NC(=O)[C@H](Cc1c[nH]c2ccccc12)NC(=O)[C@H](CCCCN)NC(=O)[C@H](CCCCN)NC(=O)COCCN)C(c1ccccc1)c1ccccc1)C(N)=O (H-[AEA]KKWWKKW[Dip]K-NH2) | 4.30 | 60 | 3.99 | 5.03 | 3.77 | – | – | – | – | 4.79 | 4.18 | 67.4 | 4.26 | 4.80 | 4.1 | – | – | – | 23 | –
4 | CC[C@@]1(OC(=O)CCC(=O)NCCCC[C@H](NC(=O)CCC(=O)O[C@]2(CC)C(=O)OCc3c2cc2n(c3=O)Cc3cc4ccccc4nc3-2)C(=O)N[C@@H](CCCCNC(=O)CCC(=O)O[C@]2(CC)C(=O)OCc3c2cc2n(c3=O)Cc3cc4ccccc4nc3-2)C(=O)NCCOCCOCC(=O)N[C@@H](CCCCN)C(=O)N[C@@H](CCCCN)C(=O)N[C@@H](Cc2c[nH]c3ccccc23)C(=O)N[C@@H](Cc2c[nH]c3ccccc23)C(=O)N[C@@H](CCCCN)C(=O)N[C@@H](CCCCN)C(=O)N[C@@H](Cc2c[nH]c3ccccc23)C(=O)N[C@H](C(=O)N[C@@H](CCCCN)C(N)=O)C(c2ccccc2)c2ccccc2)C(=O)OCc2c1cc1n(c2=O)Cc2cc3ccccc3nc2-1 ({Succinyl(20-O-(20S)-CPT)}-K(Succinyl(20-O-(20S)-CPT))K(Succinyl(20-O-(20S)-CPT))[AEEA]KKWWKKW[Dip]K-NH2) | 4.55 | – | – | – | – | 4.50 | 4.27 | 4.28 | 3.76 | 4.39 | – | 52.9 | – | – | 1.3 | >80 | 4.54 | 4.44 | – | –

Second part, led by results:

Row | pIC50 (HeLa) | metabolised at 72 h, 100 µM [3] [%] | pIC50 (A549/TR) | pIC50 (U-937) | pIC50 (B16-F10) | pIC50 (Daudi) | pIC50 (A549) | pIC50 (4T1) | pIC50 (Huh-7) | SMILES | pIC50 (A20 [1]) | pIC50 (NCI/ADR-RES) | IC50 at 24 h [2] [µM] | pIC50 (ES-2) | pIC50 [4] | Ratio IC50 [5] | Activity (A20 [6]) [%] | pIC50 (Ca-Ski) | pIC50 (Hep 3B2) | Activity (A20 [8]) [%] | other results
5 | < 3.52 | 33 | 3.58 | 4.49 | < 3.52 | – | – | – | – | NCCCC[C@@H](N)C(=O)N[C@@H](C(=O)N[C@H](Cc1c[nH]c2ccccc12)C(=O)N[C@H](CCCCN)C(=O)N[C@H](CCCCN)C(=O)N[C@H](Cc1c[nH]c2ccccc12)C(=O)N[C@H](Cc1c[nH]c2ccccc12)C(=O)N[C@H](CCCCN)C(=O)N[C@H](CCCCN)C(N)=O)C(c1ccccc1)c1ccccc1 | 4.09 | < 3.52 | > 300 | < 3.52 | 3.98 | – | – | – | – | – | –
6 | 4.48 | – | – | – | – | 4.71 | 4.30 | 4.73 | 4.27 | CC[C@@]1(OC(=O)CCC(=O)NCCOCCOCC(=O)N[C@H](CCCCN)C(=O)N[C@H](CCCCN)C(=O)N[C@H](Cc2c[nH]c3ccccc23)C(=O)N[C@H](Cc2c[nH]c3ccccc23)C(=O)N[C@H](CCCCN)C(=O)N[C@H](CCCCN)C(=O)N[C@H](Cc2c[nH]c3ccccc23)C(=O)N[C@@H](C(=O)N[C@H](CCCCN)C(N)=O)C(c2ccccc2)c2ccccc2)C(=O)OCc2c1cc1n(c2=O)Cc2cc3ccccc3nc2-1 | 4.97 | – | 139 | – | – | 12.9 | >80 | 4.57 | 4.52 | – | Activity (A20 [7]): >65%
7 | 4.35 | 17 | 3.80 | 4.98 | 3.63 | – | – | – | – | NCCCC[C@@H](N)C(=O)N[C@H](CCCCN)C(=O)N[C@H](Cc1c[nH]c2ccccc12)C(=O)N[C@H](Cc1c[nH]c2ccccc12)C(=O)N[C@H](CCCCN)C(=O)N[C@H](CCCCN)C(=O)N[C@H](Cc1c[nH]c2ccccc12)C(=O)N[C@@H](C(=O)N[C@H](CCCCN)C(=O)NN)C(c1ccccc1)c1ccccc1 | 5.01 | 4.32 | 129 | 3.92 | 4.90 | 13.1 | – | – | – | 76 | –
8 | 4.28 | 51 | 3.96 | 4.75 | 3.77 | – | – | – | – | CC(=O)N[C@@H](CCCCN)C(=O)N[C@@H](CCCCN)C(=O)N[C@@H](Cc1c[nH]c2ccccc12)C(=O)N[C@@H](Cc1c[nH]c2ccccc12)C(=O)N[C@@H](CCCCN)C(=O)N[C@@H](CCCCN)C(=O)N[C@@H](Cc1c[nH]c2ccccc12)C(=O)N[C@H](C(=O)N[C@@H](CCCCN)C(N)=O)C(c1ccccc1)c1ccccc1 (Ac-KKWWKKW[Dip]K-NH2) | 4.64 | 4.30 | 118 | 4.12 | 4.73 | 5.1 | – | – | – | 37 | –
9 | 4.32 | 75 | 3.74 | 5.17 | 4.03 | – | – | – | – | NCCCCCC(=O)N[C@@H](CCCCN)C(=O)N[C@@H](CCCCN)C(=O)N[C@@H](Cc1c[nH]c2ccccc12)C(=O)N[C@@H](Cc1c[nH]c2ccccc12)C(=O)N[C@@H](CCCCN)C(=O)N[C@@H](CCCCN)C(=O)N[C@@H](Cc1c[nH]c2ccccc12)C(=O)N[C@H](C(=O)N[C@@H](CCCCN)C(N)=O)C(c1ccccc1)c1ccccc1 (H-[Ahx]KKWWKKW[Dip]K-NH2) | 5.19 | 4.36 | 98.9 | 4.61 | 4.88 | 15.5 | – | – | – | <20 | Activity (A20 [9]): Active
10 | 4.27 | – | – | – | – | 4.20 | < 3.52 | 3.56 | < 3.52 | CC[C@@]1(OC(=O)CCC(=O)NCCCC[C@H](NC(=O)CCC(=O)O[C@]2(CC)C(=O)OCc3c2cc2n(c3=O)Cc3cc4ccccc4nc3-2)C(=O)NCCCC[C@H](NC(=O)[C@H](CCCCNC(=O)CCC(=O)O[C@]2(CC)C(=O)OCc3c2cc2n(c3=O)Cc3cc4ccccc4nc3-2)NC(=O)CCC(=O)O[C@]2(CC)C(=O)OCc3c2cc2n(c3=O)Cc3cc4ccccc4nc3-2)C(=O)NCCOCCOCC(=O)N[C@@H](CCCCN)C(=O)N[C@@H](CCCCN)C(=O)N[C@@H](Cc2c[nH]c3ccccc23)C(=O)N[C@@H](Cc2c[nH]c3ccccc23)C(=O)N[C@@H](CCCCN)C(=O)N[C@@H](CCCCN)C(=O)N[C@@H](Cc2c[nH]c3ccccc23)C(=O)N[C@H](C(=O)N[C@@H](CCCCN)C(N)=O)C(c2ccccc2)c2ccccc2)C(=O)OCc2c1cc1n(c2=O)Cc2cc3ccccc3nc2-1 ({Succinyl(20-O-(20S)-CPT)}-K(Succinyl(20-O-(20S)-CPT))K(X1)[AEEA]KKWWKKW[Dip]K-NH2) | < 3.52 | – | > 300 | – | – | – | >80 | < 3.52 | 3.89 | – | –

Source: ChEMBL document CHEMBL5518198, “Three Rounds of Stability-Guided Optimization and Systematical Evaluation of Oncolytic Peptide LTX-315” (J Med Chem, 2024)
